Assay results taken from PubChem BioAssay (NCI).
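Assay format: 96-well plates, 48-hour exposure. At the TGI there is no net growth.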 *1 amine or outer side, *2 acyl side, *3 side chain or, on linkers, in order; H or OH if unused. Where a SMILES comes first, the peptide text is derived from it. [ ]: non-standard residue; d: D form. ξ: configuration not given here. X22 = O=C(C(CC(O)CO)O[*:1])[*:2]; Ile(3ξ) = CCC(C)[C@H](N)C(=O)O; NMeV = CN[C@H](C(=O)O)C(C)C; NMeA = CN[C@@H](C)C(=O)O; βAla = NCCC(=O)O

Assays:
Assay in all cases: NCI tumour cell line growth inhibition, 48 h
RPMI-8226 leukemia = system: RPMI-8226 leukemia
MALME-3M melanoma = system: MALME-3M melanoma
NCI-H460 lung = system: NCI-H460 lung
TK-10 renal = system: TK-10 renal
ACHN renal = system: ACHN renal
SK-MEL-2 melanoma = system: SK-MEL-2 melanoma
SNB-75 CNS = system: SNB-75 CNS
OVCAR-4 ovarian = system: OVCAR-4 ovarian
UACC-257 melanoma = system: UACC-257 melanoma
HCT-116 colon = system: HCT-116 colon
SF-539 CNS = system: SF-539 CNS
SR leukemia = system: SR leukemia
HOP-62 NSCLC = system: HOP-62 NSCLC
EKVX NSCLC = system: EKVX NSCLC
HCT-15 colon = system: HCT-15 colon
OVCAR-3 ovarian = system: OVCAR-3 ovarian
HT29 colon = system: HT29 colon
SK-MEL-5 melanoma = system: SK-MEL-5 melanoma
NCI/ADR-RES ovarian = system: NCI/ADR-RES ovarian

| SMILES | TGI (RPMI-8226 leukemia) [µM] | TGI (MALME-3M melanoma) [µM] | TGI (NCI-H460 lung) [µM] | TGI (TK-10 renal) [µM] | TGI (ACHN renal) [µM] | TGI (SK-MEL-2 melanoma) [µM] | TGI (SNB-75 CNS) [µM] | TGI (OVCAR-4 ovarian) [µM] | TGI (UACC-257 melanoma) [µM] | TGI (HCT-116 colon) [µM] | TGI (SF-539 CNS) [µM] | TGI (SR leukemia) [µM] | TGI (HOP-62 NSCLC) [µM] | TGI (EKVX NSCLC) [µM] | TGI (HCT-15 colon) [µM] | TGI (OVCAR-3 ovarian) [µM] | TGI (HT29 colon) [µM] | TGI (SK-MEL-5 melanoma) [µM] | TGI (NCI/ADR-RES ovarian) [µM] |
| --- | --- | --- | --- | --- | --- | --- | --- | --- | --- | --- | --- | --- | --- | --- | --- | --- | --- | --- | --- |
| C[N+]1(C)C[C@@H](O)C[C@@H]1C(=O)[O-] | > 100 | > 100 | > 100 | > 100 | > 100 | > 100 | > 100 | > 100 | > 100 | > 100 | > 100 | > 100 | > 100 | > 100 | > 100 | > 100 | > 100 | – | – |
| CCOC(=O)C1=C(c2ccccc2)N(C(C)=O)Cc2ccccc21 | 38.7 | 46.7 | 41.3 | > 100 | 66.7 | 38.2 | 77.1 | > 100 | 34.6 | 30.2 | 30.9 | 41.7 | 44.3 | > 100 | > 100 | 43.2 | 33.8 | 25.1 | – |
| COC1=CC(=O)C2C(C1=O)C(c1ccc(Cl)cc1)[C@@H]2C (stereo partly specified) | > 100 | 46 | 75.6 | > 100 | 31.9 | > 100 | 64.8 | > 100 | > 100 | 33.7 | 51.2 | – | > 100 | 71.4 | 31.9 | > 100 | > 100 | 41.2 | – |
| Nc1nc2ncn(CC(O)COC(=O)c3ccccc3)c2c(=O)[nH]1 (stereo unspecified) | > 100 | > 100 | > 100 | > 100 | > 100 | > 100 | > 100 | > 100 | > 100 | > 100 | > 100 | > 100 | > 100 | > 100 | > 100 | > 100 | > 100 | > 100 | – |
| COC(=O)C1(O)c2ccccc2N=C2C1CCN2C (stereo unspecified) | > 100 | > 100 | > 100 | > 100 | > 100 | > 100 | 87.8 | > 100 | > 100 | > 100 | > 100 | > 100 | > 100 | > 100 | > 100 | – | > 100 | > 100 | – |
| Cc1c/c(=N/NC(=O)c2ccncc2)n2nc(N)sc2n1 | > 100 | – | > 100 | – | > 100 | > 100 | > 100 | > 100 | > 100 | > 100 | > 100 | > 100 | > 100 | > 100 | > 100 | > 100 | > 100 | > 100 | > 100 |
| O=C(O)COc1ccc(C(=O)/C(SS/C(C(=O)c2ccc(OCC(=O)O)c(Cl)c2Cl)=C2\C=C(c3ccccc3Cl)SS2)=C2/C=C(c3ccccc3Cl)SS2)c(Cl)c1Cl | 42.5 | > 100 | 52 | > 95.7 | > 68.9 | 50 | > 100 | 57.1 | > 83.1 | > 58.7 | 17.2 | 6.91 | > 100 | > 89.3 | > 54.6 | 53 | > 31.6 | 49 | – |
| CC(=O)NC(CCCNC(=O)OCc1ccccc1)C(=O)O (stereo unspecified) | > 100 | > 100 | > 100 | > 100 | > 100 | > 100 | > 100 | > 100 | > 100 | > 100 | > 100 | – | > 100 | > 100 | > 100 | > 100 | > 100 | > 100 | – |
| COc1ccc2nc3c([N+](=O)[O-])ccc(NCCN(C)C)c3c(NCCN(C)C)c2c1 | 1.97 | 7.69 | – | > 10 | – | – | 3.51 | 1.86 | > 10 | – | – | 0.634 | 2.73 | 4.59 | 2.59 | – | 4.51 | 3.28 | – |
| CCC(C)[C@@H]1NC(=O)[C@@H]2CCCN2C(=O)C(CC(O)CO)OC(=O)CCNC(=O)[C@H](C)N(C)C(=O)[C@H](C(C)C)N(C)C1=O (stereo partly specified) (cyclo([Ile(3ξ)][NMeV][NMeA][βAla][X22]P)) | > 100 | > 100 | > 100 | > 100 | – | > 100 | > 100 | > 100 | > 100 | > 100 | > 100 | > 100 | > 100 | – | > 100 | > 100 | > 100 | > 100 | – |
| Cc1nc2ccc(N)cc2[nH]c1=O | > 100 | > 100 | > 100 | > 100 | > 100 | > 100 | – | > 100 | > 100 | > 100 | > 100 | – | > 100 | > 100 | > 100 | > 100 | – | > 100 | – |
| O=c1c2n[nH]nc2nc2n1CC(c1ccccc1)S2 (stereo unspecified) | > 100 | > 100 | > 100 | > 100 | > 100 | – | > 100 | > 100 | > 100 | > 100 | > 100 | – | > 100 | > 100 | > 100 | > 100 | – | > 100 | > 100 |
| C=C(C)CC(C)(c1cc2ccccc2n1C)N1CCOCC1 (stereo unspecified) | – | > 100 | > 100 | > 100 | > 100 | > 100 | > 100 | > 100 | > 100 | > 100 | > 100 | > 100 | > 100 | > 100 | > 100 | > 100 | > 100 | > 100 | – |
| N#C/C(C(=O)Nc1ccc(Cl)cc1)=C(/N)N1CCOCC1 | > 100 | – | > 100 | – | > 100 | > 100 | > 100 | – | > 100 | > 100 | > 100 | > 100 | > 100 | > 100 | > 100 | > 100 | > 100 | > 100 | > 100 |
| N#CC1CCCCC1NC1(C#N)CCCCC1 (stereo unspecified) | > 100 | > 100 | – | > 100 | – | > 100 | > 100 | – | > 100 | – | > 100 | – | > 100 | > 100 | > 100 | > 100 | > 100 | > 100 | – |
| CCOC(=O)CC(NCc1ccc(N=Cc2nc3ccc(C(F)(F)F)cc3nc2-c2ccccc2)cc1)C(=O)OCC (stereo unspecified) | > 100 | > 100 | > 100 | > 80.6 | > 100 | > 73.3 | > 77 | > 100 | > 100 | > 100 | > 58 | > 100 | > 81.7 | > 100 | > 100 | > 100 | > 100 | > 100 | – |
| C[N+](C)(C)CCOP(=O)([O-])OCCNC(=O)c1ccc2ccccc2c1 | > 100 | > 100 | – | > 100 | > 100 | – | > 100 | – | > 100 | > 100 | > 100 | > 100 | > 100 | > 100 | > 100 | > 100 | > 100 | > 100 | > 100 |
| COC(=O)C(Cc1nc2ccccc2[nH]c1=O)C(=O)C(=O)Nc1ccc(F)cc1 (stereo unspecified) | – | 79.5 | > 100 | > 100 | > 100 | > 100 | > 100 | > 100 | > 100 | > 100 | > 100 | > 100 | > 100 | > 100 | > 100 | > 100 | > 100 | > 100 | – |
| Cc1ccc2nc3c(C)cc(=O)cc-3sc2c1 | – | 81.1 | 60.6 | 49.8 | 53.1 | 52.7 | 69.2 | 33.6 | 59.2 | 34.2 | 42.6 | 46.7 | 58.8 | 66.4 | 40.9 | 55.2 | > 100 | 29 | – |
| CSc1nc2nc(C(O)C(O)C(O)CO)cnc2c(=O)[nH]1 (stereo unspecified) | > 100 | > 100 | > 100 | > 100 | > 100 | > 100 | > 100 | – | > 100 | > 100 | > 100 | – | > 100 | > 100 | > 100 | > 100 | > 100 | > 100 | – |
| COc1c(C)c(O)c2c(c1C)OC(c1ccccc1)CC2=O (stereo unspecified) | > 100 | 83.1 | > 100 | > 100 | > 100 | 74.1 | > 100 | > 100 | – | > 100 | > 100 | 75.5 | > 100 | > 100 | > 100 | > 100 | > 100 | – | – |
| CCSc1nnc(-c2ccccc2)nc1Cc1ccc(OC)cc1 | > 100 | > 100 | > 100 | > 100 | > 100 | > 100 | > 100 | > 100 | > 100 | > 100 | > 100 | > 100 | > 100 | > 100 | > 100 | > 100 | > 100 | – | – |
